Assays:
[1] = molecular target: T1, human serum albumin (HSA) (Homo sapiens, UniProt P02768); test: Fluorescence quenching of HSA by flavonoids (Stern–Volmer and Hyperquad2006 evaluation); assay type: binding; details: for Kd / logKSV (Stern–Volmer quenching constant): HSA 2 µmol/L, decimal log ± SEM; for Kd: PBS pH 7.4, Hyperquad2006, read-out: logK (binding constant) (converted); for logKSV (Stern–Volmer quenching constant): PBS pH 7.4, λex 295 nm, λem 340 nm; for Stability of flavonoid–HSA complex vs. the chrysin–HSA complex: relative to chrysin–HSA
T1 construct: purchased Sigma-Aldrich
T1 sequence (P02768 25-609): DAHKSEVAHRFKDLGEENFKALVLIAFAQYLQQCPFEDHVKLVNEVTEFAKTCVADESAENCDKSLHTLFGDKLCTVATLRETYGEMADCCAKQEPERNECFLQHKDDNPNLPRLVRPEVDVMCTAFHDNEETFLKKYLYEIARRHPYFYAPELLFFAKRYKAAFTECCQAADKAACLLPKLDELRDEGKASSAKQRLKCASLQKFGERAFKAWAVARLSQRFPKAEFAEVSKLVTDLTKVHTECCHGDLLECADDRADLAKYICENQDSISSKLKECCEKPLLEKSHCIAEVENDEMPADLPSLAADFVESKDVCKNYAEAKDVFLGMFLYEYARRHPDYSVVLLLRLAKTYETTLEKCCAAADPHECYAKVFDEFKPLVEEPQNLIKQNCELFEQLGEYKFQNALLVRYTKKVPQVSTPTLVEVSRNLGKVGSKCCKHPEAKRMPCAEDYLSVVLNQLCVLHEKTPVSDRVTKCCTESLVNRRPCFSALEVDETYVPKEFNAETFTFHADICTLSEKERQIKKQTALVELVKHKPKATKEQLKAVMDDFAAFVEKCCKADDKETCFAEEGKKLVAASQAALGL
Experimental: (§1) Fluorescence spectroscopic measurements were carried out employing a Hitachi F-4500 fluorimeter (Tokyo, Japan). Absorption spectra of flavonoids were recorded using a HALO DB-20 UV-Vis spectrophotometer (Dynamica, London, UK). Spectroscopic measurements were performed in phosphate-buffered saline (pH 7.4; PBS: 8.0 g/L NaCl, 0.2 g/L KCl, 1.81 g/L Na2HPO4·2H2O, and 0.24 g/L KH2PO4) at room temperature, in the presence of air.
(§2) The complex formation of flavonoids with albumin was tested with both HSA and BSA. Binding constants of flavonoid–albumin complexes were determined by fluorescence quenching, during which emission spectra of albumins (2 µmol/L) were recorded in the presence of increasing flavonoid concentrations (0.0, 0.5, 1.0, 2.0, 3.0, 4.0 and 5.0 µmol/L; λexc = 295 nm). Quenching studies were evaluated based on the graphical application of the Stern–Volmer equation [31, 34]. To eliminate the potential inner filter effects of flavonoids, fluorescence intensities were corrected as described.
(§3) Binding constants (K) of flavonoid–albumin complexes were also evaluated by non-linear fitting employing the Hyperquad2006 program package (Protonic Software, Leeds, UK) as described elsewhere. Binding constants and stoichiometry were quantified based on the model with the lowest standard deviation.

[2] = molecular target: T2, bovine serum albumin (BSA) (Bos taurus, UniProt P02769); test: Fluorescence quenching of BSA by flavonoids (Stern–Volmer and Hyperquad2006 evaluation); assay type: binding; details: BSA 2 µmol/L, decimal log ± SEM; for Kd: PBS pH 7.4, Hyperquad2006, read-out: logK (binding constant) (converted); for logKSV (Stern–Volmer quenching constant): PBS pH 7.4, λex 295 nm, λem 340 nm
T2 construct: purchased Sigma-Aldrich
T2 sequence (P02769 25-607): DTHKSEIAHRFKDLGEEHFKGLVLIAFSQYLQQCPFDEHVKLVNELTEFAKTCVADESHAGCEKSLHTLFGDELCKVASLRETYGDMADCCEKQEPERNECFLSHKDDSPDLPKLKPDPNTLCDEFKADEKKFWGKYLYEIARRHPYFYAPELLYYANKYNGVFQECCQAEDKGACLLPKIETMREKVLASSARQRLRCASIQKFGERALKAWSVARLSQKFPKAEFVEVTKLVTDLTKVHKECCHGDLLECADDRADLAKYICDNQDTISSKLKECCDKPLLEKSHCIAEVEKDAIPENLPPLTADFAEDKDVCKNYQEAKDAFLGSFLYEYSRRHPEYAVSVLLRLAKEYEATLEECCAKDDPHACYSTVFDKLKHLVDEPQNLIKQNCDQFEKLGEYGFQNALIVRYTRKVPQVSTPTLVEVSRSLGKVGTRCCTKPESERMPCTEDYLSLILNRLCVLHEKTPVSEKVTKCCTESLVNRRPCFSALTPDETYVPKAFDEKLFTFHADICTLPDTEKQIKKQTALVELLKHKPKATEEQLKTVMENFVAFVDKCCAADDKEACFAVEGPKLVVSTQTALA
Experimental: as §1, §2, §3

[3] = tested on: T3, warfarin–HSA complex (Sudlow's Site I); test: Ultrafiltration: displacement of Site I marker warfarin from HSA; assay type: binding, human; details: 1 µmol/L warfarin, 5 µmol/L HSA, PBS pH 7.4
T3 construct: purchased Sigma-Aldrich
Experimental: (§4) Effects of chrysin, C7S, and C7G on the albumin-binding of Sudow’s Site I (warfarin) and Site II (naproxen) markers were tested by ultrafiltration. In these experiments, Pall Microsep^TM Advance Centrifugal Devices (Pall Corporation, Ann Arbor, MI, USA) (from VWR) with a 30 kDa molecular weight cut-off value were employed, as described elsewhere. To examine the displacement of warfarin by flavonoids, samples contained warfarin and HSA (1.0 and 5.0 µmol/L, respectively) in the absence and presence of flavonoids (10 or 20 µmol/L). Furthermore, to test the displacing ability of chrysin and its metabolites vs. naproxen, flavonoids (10 or 20 µmol/L) were added to naproxen and HSA (1.0 and 1.7 µmol/L, respectively). Each sample was prepared in PBS (pH 7.4). Before ultrafiltration, filter units were washed once with 3 mL of water, and twice with 3 mL of PBS (to completely eliminate glycerol from the filters). Thereafter, samples (2.5 mL each) were driven through the filter units by centrifugation at 7500 g and 25 °C for 10 min (fixed angle rotor). Concentrations of warfarin and naproxen in the filtrate were quantified with HPLC (see details in Section 4.4).
(§5) The HPLC system used to quantify warfarin and naproxen was equipped with a pump (model 510, Waters, Milford, MA, USA) and an injector (Rheodyne 7125, Rheodyne, Berkeley, CA, USA) with a 20 µL sample loop. Warfarin and naproxen were analyzed with a fluorescence detector (Jasco FP-920, Reanal) and an UV detector (Waters 486), respectively. Data were evaluated using Millennium Chromatography Manager (Waters).
Warfarin was analyzed based on the previously reported method without modifications. Methanol (VWR), acetonitrile (VWR), and sodium phosphate buffer (20 mM, pH 7.0) (25:5:70 v/v%) were applied in the mobile phase with 1 mL/min flow rate during the isocratic elution. Samples were driven through a guard column (Phenomenex SecurityGuard^TM Catridge C18 4.0 × 3.0 mm) linked to an analytical column (Nova-Pak C18 150 × 3.9 mm, 4 μm). Separation and analysis were performed at room temperature, during which warfarin was detected by fluorescence employing 310 and 390 nm as excitation and emission wavelengths, respectively.

[4] = tested on: T4, naproxen–HSA complex (Sudlow's Site II); test: Ultrafiltration: displacement of Site II marker naproxen from HSA; assay type: binding, human; details: 1 µmol/L naproxen, 1.7 µmol/L HSA, PBS pH 7.4
T4 construct: purchased Sigma-Aldrich
Experimental: as §4, §5
Naproxen was quantified based on the previously reported method without modifications. Acetonitrile and sodium acetate buffer (6.9 mM, pH 4.0) (50:50 v/v%) were applied in the mobile phase with a 1 mL/min flow rate during the isocratic elution. […] Separation and analysis were performed at room temperature, during which naproxen was detected by absorbance at 230 nm.

warfarin–HSA complex [5] = tested on: T5, warfarin–HSA complex; test: Steady-state fluorescence of warfarin–HSA complex (displacement of warfarin); assay type: binding, human; details: 1.0 µmol/L warfarin, 3.5 µmol/L HSA, flavonoid 0.5–10 µmol/L, λex 317 nm
T5 construct: purchased Sigma-Aldrich
Experimental: as §1
Displacement of warfarin (site marker of Sudlow’s Site I) from HSA was examined based on the previously reported model. Increasing concentrations of chrysin, C7S, and C7G (0.0, 0.5, 1.0, 2.0, 3.0, 5.0, and 10 µmol/L) were added to standard concentrations of warfarin and HSA (1.0 and 3.5 µmol/L, respectively). Thereafter, fluorescence emission spectra were recorded using 317 nm as excitation wavelength.

warfarin–HSA complex [6] = tested on: T5, warfarin–HSA complex; test: Fluorescence anisotropy of warfarin–HSA complex; assay type: binding, human; details: 1.0 µmol/L warfarin, 2.0 µmol/L HSA, increasing flavonoid concentrations, λex 317 nm, λem 379 nm
Experimental: as §1
To confirm further the displacement of warfarin from HSA by chrysin, C7S, and C7G, fluorescence anisotropy measurements were also performed. Increasing concentrations of flavonoids (0.0, 1.0, 2.0, 5.0, and 10 µmol/L) were added to warfarin and HSA (1.0 and 2.0 µmol/L, respectively). Fluorescence anisotropy values were determined (λex = 317 nm; λem = 379 nm) as described.

[7] = design: method as in PMID 25715997; details: mice, oral administration of 20 mg/kg chrysin; read-out: Cmax (peak plasma concentration); cited from earlier work
[8] = design: method as in PMID 11259985; details: healthy human volunteers, 400 mg chrysin orally; cited from earlier work
HSA = details: cited from earlier work
[9] = 10 and 20 μM flavonoid (both concentrations)
[10] = 10 or 20 μM flavonoid (both concentrations)

O=c1cc(-c2ccccc2)oc2cc(O)cc(O)c12 [Chrysin, 5,7-dihydroxyflavone]
Kd [1]: 3.89 µM | logKSV (Stern–Volmer quenching constant) [1]: 5.25 ± 0.02 L/mol | Kd [2]: 6.31 µM | logKSV (Stern–Volmer quenching constant) [2]: 5.03 ± 0.06 L/mol | Concentration of warfarin in the filtrate ([3]; 20 μM flavonoid): statistically significant (albeit slight) increase | Concentration of naproxen in the filtrate [4, 9]: statistically significant elevation | Fluorescence emission signal of warfarin at 379 nm (warfarin–HSA complex [5]): significantly decreased | Fluorescence anisotropy of warfarin (warfarin–HSA complex [6]): strong decrease | Cmax [7]: 10 nM | AUC0–∞ [8]: 3 to 16 ng·h/mL | K (binding constant to HSA) (HSA): 10^5–10^6 L/mol

O=C(O)C1OC(Oc2cc(O)c3c(=O)cc(-c4ccccc4)oc3c2)C(O)C(O)C1O (stereo not shown) [Chrysin-7-glucuronide, chrysin-7-glucuronide]
Kd [1]: 12.9 µM | logKSV (Stern–Volmer quenching constant) [1]: 4.71 ± 0.03 L/mol | Stability of flavonoid–HSA complex vs. the chrysin–HSA complex [1]: threefold lower | Kd [2]: 23.4 µM | logKSV (Stern–Volmer quenching constant) [2]: 4.34 ± 0.03 L/mol | Concentration of warfarin in the filtrate [3, 10]: did not significantly change | Concentration of naproxen in the filtrate ([4]; higher flavonoid concentration (20 μM)): significant effect | Fluorescence emission signal of warfarin at 379 nm (warfarin–HSA complex [5]): only a slight (but statistically significant) effect | Cmax [7]: 130 nM

O=c1cc(-c2ccccc2)oc2cc(OS(=O)(=O)O)cc(O)c12 [Chrysin-7-sulfate, chrysin-7-sulfate]
Kd [1]: 1.32 µM | logKSV (Stern–Volmer quenching constant) [1]: 5.61 ± 0.03 L/mol | Stability of flavonoid–HSA complex vs. the chrysin–HSA complex [1]: threefold higher | Kd [2]: 0.631 µM | logKSV (Stern–Volmer quenching constant) [2]: 5.86 ± 0.04 L/mol | Concentration of warfarin in the filtrate ([3]; 10 μM flavonoid): remarkable increase | Concentration of warfarin in the filtrate [3, 10]: practically the complete displacement of bound warfarin molecules from HSA | Concentration of naproxen in the filtrate [4, 9]: statistically significant elevation | Fluorescence emission signal of warfarin at 379 nm (warfarin–HSA complex [5]): strongest decrease | Fluorescence anisotropy of warfarin (warfarin–HSA complex [6]): strong decrease | Cmax [7]: 160 nM | AUC0–∞ [8]: 420 to 4220 ng·h/mL | AUC0–∞ of C7S compared with chrysin [8]: approximately 30 fold

C[C@@H]1Cc2c(Cl)cc(C(=O)N[C@@H](Cc3ccccc3)C(=O)O)c(O)c2C(=O)O1 [Ochratoxin A, ochratoxin A, reference compound]
logK (complex with HSA) (HSA): 7.4–7.6
